What is called IC50 is the concentration that inhibits the measured activity by half. A low value points to higher potency. A word on the MTD: it is the largest dose that counted as tolerated.

In one data set the test system is U87 cells. The data set can be described thus: MTT cell viability assay, U87. The class given is cell-based. The conditions noted are these: Homo sapiens, U-87 MG, 72 h treatment. As for the experimental part: (§1) Cell viability was measured using the colorimetric MTT assay based on the reduction of MTT into formazan dye. Cell lines were seeded into 96-well cell culture plates (4000 cells/well) in appropriate medium. After overnight incubation, cells were treated with increasing concentrations of 1, 2, 3, 4, 5, and 6 (0.5, 1, 2, 4, and 8 µM). After 72 h treatment, MTT solution (4 mg/mL) was added and plates were incubated at 37 °C with 5% CO2 for 3 h. After incubation, formazan crystals were dissolved using 100 µL DMSO, resulting in a purple color. The absorbance was measured at 570 nm with a reference wavelength of 690 nm using an automated microplate reader (MultiskanSky, Thermo Scientific, USA). The IC50 values were determined by non-linear regression analysis in GraphPad Prism 8.0.2. software (GraphPad Software, Boston, MA, USA).
(In general: Tetrazolium dyes change colour on reduction, which living cells bring about.)

A further data set has as its system SVG p12 cells. The data set is described as follows: MTT cell viability assay, SVG p12. The class given is cell-based, human. To be noted: for IC50: Homo sapiens, SVGp12, 72 h treatment, MTT, normal glial cell line; for Selectivity Index: IC50 SVG p12 vs average IC50 in A-172, U87 and U87-TxR. The protocol: as §1
In data set [1] the test system is H2O2 and peroxynitrite anion levels in U87-TxR cells. The data set is described as follows: ROS detection by DHR, U87-TxR. The conditions noted are these: 4 µM, 24 h and 48 h. The class given is cell-based, human. The protocol:
(§2) The levels of ROS were measured in U87 and U87-TxR cells by flow cytometry. The production of superoxide anions was detected using DHE fluorescence dye, while production of H2O2 and peroxynitrite anions was detected using DHR fluorescence dye. Cells were seeded in 6-well plates (150,000 cell/well) and incubated overnight. The cells were then treated with compounds 2 or 5 (4 μM) for 24 h and 48 h. CDDP (10 μM) was used as a positive control. After the treatment period, the cells were stained with DHE or DHR for 30 min in the dark. Following incubation, cells were harvested with trypsinization and washed twice in cold phosphate buffer solution (PBS). Fluorescence was measured on a CytoFlex flow cytometer (Beckman Coulter, Indianapolis, IN, USA). Green fluorescence from the oxidized DHR dye was detected at 525 nm, while the red fluorescence from ethidium derived from DHE was detected at 585 nm. At least 10,000 events were assayed for each sample. The results were analyzed by CytExpert 2.4.0.28 software (Beckman Coulter, Indianapolis, IN, USA).

Data set [2] concerns H2O2 and peroxynitrite anion levels in U87 cells. The data set is described as follows: ROS detection by DHR, U87. The class given is cell-based, human. The conditions noted are these: 4 µM, 24 h and 48 h. As for the experimental part: as §2
Data set [3] concerns antioxidant-related gene mRNA in U87 cells. The data set is described as follows: RT-qPCR of oxidative-stress-related genes, U87. The class given is cell-based, human. The conditions noted are these: U87, 4 µM, 24 h; for increase in GPX1 mRNA expression: relative to untreated control. As for the experimental part:
(§3) Prior to RNA isolation, U87 and U87-TxR cell were treated with 4 μM 2 and 5 for 24 h. TRIzol® Reagent was used to isolate total RNA according to manufacturer’s instructions. RNA concentration was determined with NanoPhotometer N60 (Implen GmbH, Munchen, Germany). Quality was determined using electrophoresis on a 1.3% agarose gel. Reverse transcription reaction was carried out using High-Capacity cDNA Reverse Transcription Kit with RNase Inhibitor.
(§4) Quantitative RT-PCR (RT-qPCR) was performed to evaluate mRNA expression levels of CAT, GSR, SOD2, GPX1, GPX4, GST, TRX1, and TRXR1, with ACTB used as the reference gene. Reactions were carried out using Maxima SYBR Green/ROX qPCR Master Mix (Thermo Fisher Scientific, Waltham, MA, USA) in the QuantStudio™ 3 Real-Time PCR System (Applied Biosystems by Thermo Fisher Scientific). Thermocycling conditions consisted of an initial incubation at 50 °C for 5 min, followed by denaturation at 95 °C for 10 min and then 40 cycles of amplification with denaturation at 95 °C for 15 s and annealing/extension at 60 °C for 60 s. Relative gene expression levels were calculated using the ΔΔCt method, normalizing target gene expression to ACTB. All reactions were performed in technical triplicates.

Data set [4] concerns antioxidant-related gene mRNA in U87-TxR cells. The data set is described as follows: RT-qPCR of oxidative-stress-related genes, U87-TxR. To be noted: 4 µM, 24 h; for increase in GPX1 mRNA expression: relative to untreated control. Type of data set: cell-based, human. As for the experimental part:
as §3, §4
(In qPCR the cycle at which signal appears reflects the starting amount.)

For the next data set, the system named is U87-TxR cells. The data set is described as follows: Combination with PTX, MTT assay. The class given is cell-based, human. To be noted: for combination index (CI) with PTX: CalcuSyn, 0.5-2 µM compound with 0.1-0.5 µM PTX, 72 h, CI < 1 synergistic. As for the experimental part: as §1
The combined effects of 2 and 5 with PTX were studied in U87-TxR cells by MTT assay as previously described. In simultaneous treatments that lasted 72 h, three concentrations of 2 and 5 (0.5, 1, and 2 µM) were combined with three concentrations of PTX (0.1 μM, 0.2 μM, and 0.5 μM). Drug combination effects were evaluated using the Chou–Talalay method, which calculates the combination index (CI) value for the degree of interaction between the drugs. This method allows quantitative assessment of synergism (CI < 1), additivity (CI close to 1), or antagonism (CI > 1) across a range of dose–effect relationships. Calcusyn® version 1.1 software was used for data analysis (Biosoft, Cambridge UK). Three data points were used for each single drug in each designed experiment. The non-constant ratio combination was chosen to assess the effect of both drugs in combination. The results are presented in a fraction-affected CI graph.

The subject of data set [5] is subcutaneous xenografts of U87 cells. The data set is described as follows: Preliminary efficacy study, subcutaneous U87 xenografts. The conditions noted are these: 7 mg/kg, administered twice i.p. The class given is in vivo. The protocol:
(§5) Male immunodeficient mice (Rag1^−/−), aged 4–8 weeks, were used for xenograft studies. A total of 1 × 10^6 U87 cells were injected subcutaneously into the rear axillary region to establish solid tumors. […] Maximum tolerated dose (MTD) testing for 5 was performed in 6- to 8-week-old male Rag1 mice using two animals per dose group. Compound 5 was administered i.p. at doses of 7 mg/kg, 12.5 mg/kg, 25 mg/kg, 50 mg/kg, 100 mg/kg, and 200 mg/kg. The carrier consisted of 10% (v/v) DMSO with 5% (v/v) Tween-80 and was diluted in 0.9% (w/v) NaCl. Animals were monitored for weight loss, changes in feeding or neurological signs, and any morbidity to identify the highest non-toxic dose. For efficacy studies, Rag1 mice were inoculated subcutaneously with 1 × 10^6 cells (mean starting weight ≈ 20 g); animals were then randomized into treatment groups. The compound 5 group (n = 5) received 7 mg/kg i.p. (two injections during the study period). Comparator groups included carrier control (n = 5). Compound 5 was formulated in the vehicle described above. The study was terminated when tumors in untreated mice reached approximately 11% of body weight. At termination, animals were euthanized and tumors were excised. Tumor volumes and body weights were recorded throughout the experiment and used to assess efficacy and tolerability.

A short description of data set [6]: Maximum tolerated dose testing. The conditions noted are these: Rag1-/- (immunodeficient), mouse, in vivo, ip, male Rag1 mice; read-out: maximal tolerated dose (MTD). The protocol: as §5

For `CC1(C)CCC[C@]2(C)[C@@H](CC[C@@](C)(O)/C=C/c3ccc(CNCCCCCCCCNCC45CC6CC(CC(C6)C4)C5)s3)[C@](C)(O)CC[C@@H]12` [Compound 2], the IC50 in the data set with U87 cells is 2.59 ± 0.068 µM. Moreover, in the data set with SVG p12 cells, it took 6.2 ± 0.145 µM to reach half-maximal inhibition (IC50) and the “Selectivity Index” value was 2.813 ^S. Further, the “DHR fluorescence (H2O2 and peroxynitrite anion levels)” value in [1] is listed as “increase in DHR fluorescence”. In addition, the “H2O2 and peroxynitrite anion levels (DHR)” value in data set [2] was “slight or no increase”. Moreover, in data set [3], the “CAT mRNA expression levels” value was “remained unchanged”, the GSTP gene expression result was “significantly increased”, the “TRX1 mRNA” value is “significant downregulation” and the “increase in GPX1 mRNA expression” value was 1.8 fold. In addition, in [4], the “CAT mRNA expression levels” value is on record as “remained unchanged”; the GSTP gene expression result is listed as “significantly increased”; the “mRNA expression of SOD2, GSR, and GPX4” value is on record as “increase”; the “increase in GPX1 mRNA expression” value is 1.9 fold. In addition, the “Relative Reversal” value in the data set on U87-TxR cells (0.5 µM of the compound) is recorded as 1.75. For the same compound, in the data set on U87-TxR cells (1.0 µM of the compound), the “Relative Reversal” value amounted to 1.68. Besides, the “Relative Reversal” value in the data set with U87-TxR cells (2.0 µM of the compound) came out at 3.05. In the data set on U87-TxR cells, the “combination index (CI) with PTX” value is given as less than 1.

Regarding `CC1(C)CCC[C@]2(C)[C@@H](CC[C@@](C)(O)/C=C/c3ccc(CNCCCCCCCCNCC45CC6CC(CC(C6)C4)C5)o3)[C@](C)(O)CC[C@@H]12` [Compound 5], it took 5.13 ± 0.139 µM to reach half-maximal inhibition with U87 cells (IC50). Further, in the data set on SVG p12 cells, half-maximal inhibition (IC50) was put at 6.69 ± 0.128 µM and the “Selectivity Index” value was 1.470. In addition, the Body weight entry in data set [5] is on record as “not adversely affected”. Moreover, the tumor growth entry in data set [5] (over 12 days) was “strongly inhibits tumor growth”. Moreover, in data set [6], the MTD amounted to 25 mg/kg. Further, the “DHR fluorescence (H2O2 and peroxynitrite anion levels)” value in data set [1] was “increase in DHR fluorescence”. Moreover, the “H2O2 and peroxynitrite anion levels (DHR)” value in data set [2] was “slight or no increase”. In data set [3], the “CAT mRNA expression levels” value is “remained unchanged”, the GSTP gene expression result is listed as “significantly increased” and the “increase in GPX1 mRNA expression” value was determined as 2.2 fold. In addition, in data set [4], the “CAT mRNA expression levels” value was “remained unchanged”; the GSTP gene expression entry is “significantly increased”; the “mRNA expression of SOD2, GSR, and GPX4” value is listed as “increase”; the “increase in GPX1 mRNA expression” value is 1.5 fold. Besides, the “Relative Reversal” value in the data set on U87-TxR cells (0.5 µM of the compound) is 0.86. In addition, the “Relative Reversal” value with U87-TxR cells (1.0 µM of the compound) is listed as 1.85. The “Relative Reversal” value in the data set on U87-TxR cells (2.0 µM of the compound) is 1.76. The “combination index (CI) with PTX” value in the data set on U87-TxR cells is less than 1.

Source of the values: paper PMC12735718, “Novel Adamantane–Sclareol Hybrids Exploit ROS Vulnerability to Overcome Multidrug-Resistance in Glioblastoma Cells” (Molecules, 2025).
